Assay results as given in publication PMC5400251, “Effect of quinoline based 1,2,3-triazole and its structural analogues on growth and virulence attributes of Candida albicans” (PLoS ONE, 2017).
Where two headings read alike, the source gives them in different places.

Key:
C. albicans ATCC 90028 = assay: Transmission electron microscopic analysis of morphology; assay type: cell-based; settings: MIC, 1 h exposure
Protocol: The morphology of C. albicans ATCC 90028 was analyzed using TEM following the standard protocol. […] Cells were then washed thrice with phosphate buffer solution to remove the residual medium and fixed overnight in 2.5% glutaraldehyde in phosphate/magnesium buffer (40 mM K2HPO4/KH2PO4, pH 6.5–0.5 mM MgCl2). Cells were washed twice for 15 min in 0.1 M sodium phosphate buffer (pH 6.0) and post-fixed for 2 h in 2% osmium tetroxide. Cells were again washed twice for 15 min in distilled water and then en bloc stained with 1% uranyl acetate (aqueous) for 30 min. After two further washes, cells were dehydrated in 95% and 100% ethanol. Cells were then exposed to propylene oxide for 2×10 min and infiltrated for 1 h in 1:1 propylene/epoxy embedding material (Epon) mixture and then overnight in fresh Epon. After polymerization for 48 h at 60°C, ultrathin sections were cut using a microtome (LeicaEM UC6) and transferred to a copper grid. Samples were stained with uranyl acetate (saturated solution of uranyl acetate in 50% alcohol) followed by lead citrate. Samples were washed three times in Milli-Q (MQ) water and dried by touching Whatman filter paper. Sections were examined with a FEI Tecnai G^2 TF20 transmission electron microscope at 200 KV.

[1] = target: T1, plasma membrane H+ ATPase (Candida albicans, UniProt P28877); assay: Proton extrusion measurement (H+ efflux); assay type: cell-based, C. albicans ATCC 90028
T1 construct: endogenous in cells; host or cells: C. albicans ATCC 90028; clinical isolates C. albicans D27 (FLC-susceptible) and D15.9 (FLC-resistant); mid-log phase whole cells
Protocol: The proton pumping activity of C. albicans was determined by monitoring acidification of external medium by measuring pH as describe earlier. In brief, the mid-log phase cells were harvested from SD medium by centrifugation at 3000 rpm for 15 min which is followed by three washings with phosphate buffer saline (PBS). A solution containing 0.1 M KCl and 0.1 mM CaCl2 in distilled water was prepared. Compounds 3a and 3b at the concentrations of 50 and 100 μg/mL were separately added in this solution. […] Initial pH was adjusted to 7.0 using 0.01 M HCl/NaOH. Approximately 0.2 g of cells were suspended in each set of solution. Suspension was kept in a double-jacketed glass container with constant stirring. Again, the pH of suspension was maintained as 7.0 for 1 min by using 0.01 N NaOH. The rate of H^+ extrusion was then monitored and calculated from the volume of 0.01 N NaOH consumed per min per mg weight of cells. Glucose has been reported as the stimulator of proton extrusion pump. Therefore above experiment was also repeated in the presence of 5 mM of glucose.

C. albicans = assay: Disk diffusion assay, appearance of zones (strains not distinguished); assay type: cell-based
Protocol: Disk diffusion assay was performed using C. albicans ATCC 90028 (standard), the two clinical isolates, C. albicans D27 (FLC-susceptible), and C. albicans D15.9 (FLC-resistant) for the lead inhibitors 3a and 3b. The C. albicans cells were inoculated into liquid SD medium and grown over night at 37°C. The cells were then centrifuged at 3000 rpm for 5 min, washed three times with PBS and then suspended in PBS again. Approximately, 10^5 cells/mL were inoculated into molten SD agar medium at 42°C and poured into 100-mm-diameter petriplates. Sterilized 4 mm disks of Whatman paper were placed on solid agar and 1, 2, and 4 μL of 3a and 2, 4, and 8 μL of 3b from the stock solution of 10 mg/mL were spotted on the disk. […] The diameter of zone of inhibition (ZOI) was recorded in millimetres after 48 h and was compared with that of control. This experiment was repeated thrice and values were shown in terms of mean ±standard error of mean.

[2] = test system: C. albicans D15.9 (FLC-resistant); assay: Growth assay (growth curve); assay type: cell-based; settings: sub-MIC (MIC/2)
Protocol: (§1) The C. albicans cells were freshly revived by subculture on the SD agar plate. A loopful of inoculum was introduced into the SD broth and cells were grown for 16 h at 37°C before use. Approximately 2×10^3 cells/mL were then inoculated into the freshly prepared 50 mL sterile SD medium. […] At predetermined time periods (0, 2, 4, 6, 8, 10, 12, 14, 16, 18, 20 22, and 24 after incubation with agitation at 37°C), 1 mL aliquot of each sample was removed from the conical flask and growth was measured tubidometrically at 600 nm using Thermo Multiskan spectrophotometer. Optical density was recorded for each concentration against time (h).

[3] = test system: C. albicans ATCC 90028 (Standard); assay: Growth assay (growth curve); assay type: cell-based; settings: sub-MIC (MIC/2)
Protocol: as §1

[4] = test system: C. albicans D27 (FLC-susceptible); assay: Growth assay (growth curve); assay type: cell-based; settings: sub-MIC (MIC/2)
Protocol: as §1

[5] = 50 μg/mL in presence of glucose (5 mM)
[6] = 100 μg/mL in presence of glucose (5 mM)
[7] = 100 μg/mL, no glucose, read-out: Inhibition of H+ extrusion
[8] = in the presence of glucose (5 mM), 100 μg/mL, read-out: Inhibition of H+ extrusion rate

T1 sequence (P28877 whole entry): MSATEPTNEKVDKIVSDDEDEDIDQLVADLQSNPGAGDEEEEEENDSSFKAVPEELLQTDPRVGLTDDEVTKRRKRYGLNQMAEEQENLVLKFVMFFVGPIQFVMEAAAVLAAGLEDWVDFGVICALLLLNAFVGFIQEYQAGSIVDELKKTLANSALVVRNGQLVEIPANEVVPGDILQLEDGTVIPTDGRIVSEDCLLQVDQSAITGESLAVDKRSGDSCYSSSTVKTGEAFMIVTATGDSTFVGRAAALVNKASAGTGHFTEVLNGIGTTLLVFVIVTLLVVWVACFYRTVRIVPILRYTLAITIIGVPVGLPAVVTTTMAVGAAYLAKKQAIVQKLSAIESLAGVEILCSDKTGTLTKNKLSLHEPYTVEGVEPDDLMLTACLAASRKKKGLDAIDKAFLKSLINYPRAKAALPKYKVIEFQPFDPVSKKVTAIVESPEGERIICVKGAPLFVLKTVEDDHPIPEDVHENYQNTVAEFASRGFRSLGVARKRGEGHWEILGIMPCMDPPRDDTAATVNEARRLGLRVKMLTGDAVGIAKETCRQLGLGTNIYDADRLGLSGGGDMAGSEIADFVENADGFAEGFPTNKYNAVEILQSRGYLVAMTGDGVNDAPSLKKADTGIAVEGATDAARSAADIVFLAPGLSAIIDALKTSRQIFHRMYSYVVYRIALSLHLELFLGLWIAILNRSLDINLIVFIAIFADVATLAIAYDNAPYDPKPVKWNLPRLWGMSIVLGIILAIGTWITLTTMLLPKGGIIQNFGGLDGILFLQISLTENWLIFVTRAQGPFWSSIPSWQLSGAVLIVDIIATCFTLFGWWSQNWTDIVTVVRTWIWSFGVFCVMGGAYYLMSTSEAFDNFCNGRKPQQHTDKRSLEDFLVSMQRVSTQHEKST

Row | Structure (SMILES) | Cell morphology by TEM (C. albicans ATCC 90028) | Range of relative H+ efflux rate [1, 5] | Range of relative H+ efflux rate ([1]; 50 μg/mL, no glucose) | Range of relative H+ efflux rate [1, 6] | Range of relative H+ efflux rate ([1]; 100 μg/mL, no glucose) | inhibition at 100 µg/mL [1, 7] | inhibition at 100 µg/mL [1, 8] | Appearance of zone around disks (clear = fungicidal nature, turbid = fungistatic nature) (C. albicans) | Time after which growth was observed [2] | Time after which growth was observed [3] | Time after which growth was observed [4] | melting point
1 | c1ccc(Cn2cc(COc3cccc4cccnc34)nn2)cc1 [Compound 3a] | several deformations | 33.40 ± 1.6 ×10^−6 mol min^−1 mg cells^−1 | 19.60 ± 0.9 ×10^−6 mol min^−1 mg cells^−1 | 26.60 ± 1.3 ×10^−6 mol min^−1 mg cells^−1 | 11.00 ± 0.5 ×10^−6 mol min^−1 mg cells^−1 | 70% | 52% | clear |  |  |  | 
2 | Clc1ccc(OCc2cn(Cc3ccccc3)nn2)c2ncccc12 [Compound 3b, 8-((1-Benzyl-1H-1,2,3-triazol-4-yl)methoxy)-5-chloroquinoline] | several deformations | 23.30 ± 1.1 ×10^−6 mol min^−1 mg cells^−1 | 23.40 ± 1.1 ×10^−6 mol min^−1 mg cells^−1 | 20.00 ± 1.0 ×10^−6 mol min^−1 mg cells^−1 | 19.30 ± 0.9 ×10^−6 mol min^−1 mg cells^−1 | 47% | 64% | turbid | 14 h | 20 h | 18 h | 148 to 149 °C
